≈ marks a conversion by molar mass, not a printed value. Blank lines part the entries; values can stand above or below the compound they belong to.
Legend:
Type in all cases: physicochemical
[1] = Dissolution in MFD solution (Example 6); conditions: 50 ml MFD solution, Drug 1
Description: 1. The data for the tri-layer tablet is the average of the values for the two tablets tested.

[2] = Water solubility of the drug
[3] = Dissolution in phosphate buffered saline (PBS) solution (Example 3); conditions: 35 ml PBS solution, Drug 2
Method: For a comparative dissolution study, Control E, consisting of 35 mg of crystalline Drug 2 was prepared. The dissolution of drug was studied by placing two of the trilayer tablets and Control E each in 35 ml of a phosphate buffered saline (PBS) solution composed of 6 mm KH2PO4, 5 mM NaOH, 60 mM KCl and 30 mM NaCl. The data for the trilayer tablet is the average of the values for the two tablets tested.

[4] = Dissolution in phosphate-buffered solution pH 7.2 simulating intestinal environment (Example 7); conditions: 50 ml phosphate-buffered solution pH 7.2, Drug 2
Method: For a comparative dissolution study, Control G, consisting of 100 mg of crystalline Drug 2 was prepared. The dissolution of drug was studied by placing one each of the bi-layer tablet and Control G preparation containing an equal amount of Drug 2 in 50 ml of the phosphate-buffered solution of Example 3 (pH 7.2, osmotic pressure 5.3 atm) to simulate an intestinal environment of use.

[5] = Dissolution in MFD solution (Example 8, sertraline); conditions: 40 ml MFD solution
Method: For a comparative dissolution study, Control H, consisting of 111.4 mg of the crystalline drug, was used. The dissolution of drug was studied by placing the bilayer tablet and Control H each in 40 ml of MFD solution.

Structure (SMILES): CON(C)C(=O)C(O)[C@H](Cc1ccccc1)NC(=O)c1cc2cc(Cl)ccc2[nH]1 (stereo in doubt) [Control F, [R-(R*,S*)]-5-chloro-N-[2-hydroxy-3-[methoxymethylamino)-3-1-(phenylmethyl)propyl]propyl]-1H-indole-2-carboxamide]
MDC (maximum drug concentration) [1]: 16 µg/mL
[Drug] drug concentration ([1]; time 0 hr): 0 µg/mL
[Drug] drug concentration ([1]; time 2 hr): 13 µg/mL
[Drug] drug concentration ([1]; time 4 hr): 16 µg/mL
[Drug] drug concentration ([1]; time 8 hr): 13 µg/mL
[Drug] drug concentration ([1]; time 12 hr): 15 µg/mL
[Drug] drug concentration ([1]; time 20 hr): 12 µg/mL
[Drug] drug concentration ([1]; time 24 hr): 11 µg/mL

Structure (SMILES): CON(C)C(=O)C(O)[C@H](Cc1ccccc1)NC(=O)c1cc2cc(Cl)ccc2[nH]1 (stereo in doubt) [Drug 1, [R-(R*,S*)]-5-chloro-N-[2-hydroxy-3-[methoxymethylamino)-3-1-(phenylmethyl)propyl]propyl]-1H-indole-2-carboxamide]
water solubility [2]: 1 µg/mL (≈ 2.4 µM)

Structure (SMILES): O=C(N[C@@H](Cc1ccccc1)[C@@H](O)C(=O)N1C[C@@H](O)[C@@H](O)C1)c1cc2cc(Cl)ccc2[nH]1 [Control E]
MDC (maximum drug concentration) [3]: 171 µg/mL
[Drug] drug concentration ([3]; time 0.3 hrs): 99 µg/mL
[Drug] drug concentration ([3]; time 1.5 hrs): 148 µg/mL
[Drug] drug concentration ([3]; time 2.0 hrs): 165 µg/mL
[Drug] drug concentration ([3]; time 3.0 hrs): 137 µg/mL
[Drug] drug concentration ([3]; time 4.0 hrs): 142 µg/mL
[Drug] drug concentration ([3]; time 12.0 hrs): 157 µg/mL
[Drug] drug concentration ([3]; time 20.0 hrs): 171 µg/mL

Structure (SMILES): O=C(N[C@@H](Cc1ccccc1)[C@@H](O)C(=O)N1C[C@@H](O)[C@@H](O)C1)c1cc2cc(Cl)ccc2[nH]1 [Control G]
MDC (maximum drug concentration) [4]: 77 µg/mL
[Drug] drug concentration ([4]; time 0 hr): 0 µg/mL
[Drug] drug concentration ([4]; time 1 hr): 59 µg/mL
[Drug] drug concentration ([4]; time 2 hr): 72 µg/mL
[Drug] drug concentration ([4]; time 4 hr): 72 µg/mL
[Drug] drug concentration ([4]; time 8 hr): 77 µg/mL
[Drug] drug concentration ([4]; time 12 hr): 71 µg/mL
[Drug] drug concentration ([4]; time 18 hr): 71 µg/mL
[Drug] drug concentration ([4]; time 24 hr): 75 µg/mL

MDC (maximum drug concentration) [5]: 401 µg/mL
AUC ([5]; time 0 hr): 0 µg·min/mL
[Drug] drug concentration ([5]; time 0 hr): 0 µg/mL
[Drug] drug concentration ([5]; time 0.2 hr): 278 µg/mL
[Drug] drug concentration ([5]; time 0.3 hr): 401 µg/mL
[Drug] drug concentration ([5]; time 0.7 hr): 341 µg/mL
[Drug] drug concentration ([5]; time 1.5 hr): 217 µg/mL
[Drug] drug concentration ([5]; time 2 hr): 188 µg/mL
[Drug] drug concentration ([5]; time 3 hr): 168 µg/mL
[Drug] drug concentration ([5]; time 4 hr): 152 µg/mL
[Drug] drug concentration ([5]; time 6 hr): 160 µg/mL
[Drug] drug concentration ([5]; time 10 hr): 137 µg/mL
[Drug] drug concentration ([5]; time 14 hr): 135 µg/mL
[Drug] drug concentration ([5]; time 24 hr): 191 µg/mL
Structure (SMILES): CN[C@H]1CC[C@@H](c2ccc(Cl)c(Cl)c2)c2ccccc21 [Control H, sertraline]
